Experimental data from patent US11529394B2, “Polypeptide conjugates and methods of uses” (BEIJING QL BIOPHARMACEUTICAL CO., LTD., priority 2020, dated 2022).

How the values were obtained:
[1] = endogenous GLP-1; cited from earlier work
[2] = Body weight loss in C57 lean mice after single subcutaneous dose; assay type: in vivo, C57BL/6 mice
Procedure: Method: 10 week old male C57BL/6 mice were injected subcutaneously with protein once on Day 1. Body weight was measured daily and five animals were used for each treatment group. […] The area under the curve for body weight loss (%) from 0 until 8 days (AUC ΔBW 0-8d) was calculated.

db/db mice = experiment: Non-fasting glucose in db/db mice after single subcutaneous dose; assay type: in vivo; details: non-fasting delta blood glucose
Procedure: Method: 10 weeks old male db/db mice were injected subcutaneously with protein once. […] Delta blood glucose is glucose subtracted by baseline level. […] The area under the curve for delta blood glucose from 0 until 192 hours (AUCΔBG 0-192 h) was calculated.

human serum albumin = human serum albumin (Homo sapiens, UniProt P02768); experiment: Human serum albumin binding by surface plasmon resonance (Biacore 8K); details: human serum albumin on CM5 chip, SPR
Chain of human serum albumin (P02768 25-609): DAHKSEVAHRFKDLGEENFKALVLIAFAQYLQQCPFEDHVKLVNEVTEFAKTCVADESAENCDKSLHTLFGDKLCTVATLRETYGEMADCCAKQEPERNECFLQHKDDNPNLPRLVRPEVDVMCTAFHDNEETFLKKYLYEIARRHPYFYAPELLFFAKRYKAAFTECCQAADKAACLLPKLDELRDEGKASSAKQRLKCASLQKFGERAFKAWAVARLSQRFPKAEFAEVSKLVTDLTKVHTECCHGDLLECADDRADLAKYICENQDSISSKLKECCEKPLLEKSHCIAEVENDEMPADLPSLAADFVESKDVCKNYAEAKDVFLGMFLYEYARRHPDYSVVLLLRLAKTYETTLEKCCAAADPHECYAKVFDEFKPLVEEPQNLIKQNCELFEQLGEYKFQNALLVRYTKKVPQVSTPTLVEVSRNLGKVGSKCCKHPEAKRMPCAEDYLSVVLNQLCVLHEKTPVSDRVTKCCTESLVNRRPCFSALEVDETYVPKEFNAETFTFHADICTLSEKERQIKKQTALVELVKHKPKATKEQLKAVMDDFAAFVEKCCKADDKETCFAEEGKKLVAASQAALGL
Procedure: Method: Binding of molecules to serum albumin was characterized by surface plastron resonance in a Biacore 8K instrument, Serum albumin from different species was covalently bound to CM5 sensor chips surface until 4000 RU was reached. The chip was blocked by 1M ethanolamine with flowrate of 10 μL/min for 420 s, Each molecule sample was diluted and injected at a flow rate of 30 μL/min to allow for binding to chip-bound albumin for 120 s and for dissociation for 300 s. Binding buffer without molecule was sent over the chip at the flow rate of 20 seconds to allow spontaneous dissociation of bound molecule for 30 seconds.

GLP-1 receptor = GLP-1 receptor (Homo sapiens, UniProt P43220); details: cited from earlier work
Chain of GLP-1 receptor (P43220 24-463, species assumed): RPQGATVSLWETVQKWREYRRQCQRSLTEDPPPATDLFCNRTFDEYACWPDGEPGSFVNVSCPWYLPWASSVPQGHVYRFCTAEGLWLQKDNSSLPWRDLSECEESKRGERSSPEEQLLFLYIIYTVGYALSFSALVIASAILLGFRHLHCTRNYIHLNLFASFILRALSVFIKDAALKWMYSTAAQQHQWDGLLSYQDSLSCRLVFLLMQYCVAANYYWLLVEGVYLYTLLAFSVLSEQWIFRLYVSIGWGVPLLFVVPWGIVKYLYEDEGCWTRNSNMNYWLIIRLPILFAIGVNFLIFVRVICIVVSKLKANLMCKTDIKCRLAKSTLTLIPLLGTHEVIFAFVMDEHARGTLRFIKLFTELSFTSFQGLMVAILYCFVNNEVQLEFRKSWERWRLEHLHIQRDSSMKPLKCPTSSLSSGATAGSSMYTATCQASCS

| Substance | half-life [1] | AUC ΔBW 0-8 d ([2]; Study 1 (FIG. 1A and 1B), 3 nmol/kg s.c. once) [day* %] | AUC ΔBW 0-8 d ([2]; Study 1 (FIG. 1A and 1B), 10 nmol/kg s.c. once) [day* %] | AUC ΔBW 0-8 d ([2]; Study 1 (FIG. 1A and 1B), 30 nmol/kg s.c. once) [day* %] | AUC ΔBW 0-8 d ([2]; Study 2 (FIG. 1C), 30 nmol/kg s.c. once) [day* %] | AUC ΔBW 0-8 d ([2]; Study 3 (FIG. 1D), 30 nmol/kg s.c. once) [day* %] | AUC ΔBG 0-192 h (db/db mice; 3 nmol/kg s.c. once) [mmol·h/L] | AUC ΔBG 0-192 h (db/db mice; 10 nmol/kg s.c. once) [mmol·h/L] | AUC ΔBG 0-192 h (db/db mice; 30 nmol/kg s.c. once) [mmol·h/L] | Rmax (human serum albumin) [RU] | loss in GLP-1 receptor binding in presence of human serum albumin (HSA) relative to unconjugated counterpart (GLP-1 receptor) [fold] |
| --- | --- | --- | --- | --- | --- | --- | --- | --- | --- | --- | --- |
| GLP-1: endogenous Glucagon-Like Peptide-1, 30 or 31 amino acid peptide fragment (7-36 or 7-37) | approximately 2 minutes | – | – | – | – | – | – | – | – | – | – |
| semaglutide [reference compound] | – | −0.6 | −11.1 | −12.7 | −9.3 | −13.2 | -317.0 | -583.4 | -527.1 | 55.2 | 939 |
